Reference: patent US12070445B2, “System and assay for monitoring production/release of membrane-lytic toxins in bacteria and compounds for modulating same” (priority 2021, dated 2024)
Entries after “also recorded” stand apart in the source; their conditions may differ.

Test system: WT S. aureus (RN6390b)
Assay: Microtiter plate (96-well) vesicle lysis assay with WT S. aureus
Assay type: cell-based
Details: 100 nM 1, 10 μM 5, 20 μM 6, 10 μM AIP
Description: Compound handling and preparation. OdDHL and BHL (Hodgkinson et al., 2011), S. aureus AIP and peptide derivatives 1-5 (Tal-Gan et al., 2013, Tal-Gan et al., 2016, Vasquez and Blackwell, 2019), and compounds 7-9 (Welsh and Blackwell, 2016a, Boursier et al., 2018, Manson et al., 2020) were synthesized using previously described methods. PQS and compound 6 were purchased from Millipore Sigma and AK Scientific respectively. Compounds were stored dry at −20° C. until needed and then dissolved in DMSO. DMSO stock solutions were prepared at concentrations that varied with compound potency and apparent solubility. Final in-well compound concentrations for 96-well vesicle lysis assays, unless noted otherwise, were: 10 μM for AIP, OdDHL, and PQS; 1 mM for BHL; 100 nM for 1-4; 10 μM for 5; 20 μM for 6; 100 μM for 7 and 8; and 200 μM for 9.
Production of phospholipid vesicles with encapsulated calcein. Large unilamellar vesicles (LUVs) were produced by adapting a freeze-thaw and vesicle extrusion procedure (Mayer et al., 1986). Briefly, stock solutions of phospholipids (DOPC, DPPC, DPPE, or cholesterol) in chloroform were mixed to the desired lipid compositions (70 mol % DOPC/30 mol % cholesterol for S. aureus vesicles or 68 mol % DPPC, 30 mol % cholesterol, 2 mol % DPPE for P. aeruginosa vesicles), and the chloroform was removed using an N2 stream or rotary evaporation followed by drying for at least one hour under vacuum. Self-quenching solutions of calcein were prepared by combining calcein and PBS or a specially prepared calcein buffer (1 mM EDTA, 10 mM Trisbase, and 100 mM NaCl; pH 8) to a calcein concentration of […]. The resulting solutions were titrated with 10 M aqueous NaOH until all calcein was dissolved and the solution reached pH 7.4 or pH 8 for PBS and the calcein buffer, respectively. The resulting calcein solutions were added to the dried phospholipid films (PBS for S. aureus formulations and the calcein buffer for the P. aeruginosa formulations) for a final lipid concentration of 5 mg/mL. The resulting lipid solutions were vortexed vigorously and briefly sonicated in a bath sonicator to form a turbid vesicle suspension. The vesicle suspensions were then freeze-thawed five times by alternately immersing them into an iPrOH/dry ice bath and a warm water bath (˜60° C.). Vesicles prepared for continuous time-course experiments were passed at least 5 times through a 100 nm polycarbonate filter using a Mini-prep extruder. Vesicles prepared for the high-throughput screen were passed through the filter 3 times. The resulting vesicles were then separated from external, unloaded calcein using a hand-packed Sephadex-G50 size exclusion chromatography column. The concentration of phospholipid in the solution was quantified using ^31P NMR (per the above protocol), and the phospholipid concentration was adjusted to 2 mM for unsaturated lipid solutions and 1 mM for saturated lipid solutions in their respective buffers. The resulting vesicles were characterized by dynamic light scattering and found to have a hydrodynamic diameter of ˜150 nm (FIGS. 3A-3C), which agrees with previous reports describing vesicle production using a similar method (Lapinski et al., 2007).
Microtiter plate vesicle lysis assays. Portions of media (2 or 10 mL) were inoculated with individual bacterial colonies and allowed to shake overnight. From these overnight cultures, subcultures were prepared by diluting the cultures 1:50 (v/v) in fresh BHI for S. aureus or 1:100 (v/v) in fresh LB for P. aeruginosa. An aliquot of each subculture (178 μL) was added to 20 μL of vesicle suspension and 2 μL of compound solution (dissolved in DMSO at 100× working concentration) in a clear-bottomed, black 96-well microtiter plate (Corning 3904). For controls, DMSO (vehicle) or Triton X-100 (1% final concentration) was substituted for compound. […]

## CC(C)c1ccc(S(=O)(=O)c2nnn3c2nc(O)c2ccccc23)cc1 [Compound 6, savirin]
  effect on vesicle lysis (calcein fluorescence over 12 hr): wholly abrogated vesicle lysis; also recorded: repress vesicle lysis
